In patent US20020018778A1, “Passive desensitization” (priority 1999, published 2002):

These sequences were tested on serum IgE from mice sensitized to recombinant Ara h 2 (assay: IgE immunoblot mapping of murine IgE binding epitopes in Ara h 2). Conditions: mouse Ara h 2 epitopes; densitometric analysis of the blot.
Description: (§1) IGE IMMUNOBLOT ANALYSIS: Membranes to be blotted were prepared either by SDS-PAGE (performed by the method of Laemmli Nature 227:680-685, 1970; incorporated herein by reference) of digested peanut antigen or by synthesis of antigen peptides on a derivativized cellulose membrane. SDS-PAGE gels were composed of 10% acrylamide resolving gel and 4% acrylamide stacking gel. Electrophoretic transfer and immunoblotting on nitrocellulose paper was performed by the procedures of Towbin (Proc. Natl. Acad. Sci. USA 76:4350-4354, 1979; incorporated herein by reference).
For mapping of murine IgE binding sites, a blot containing overlapping 13 mer peptides, offset by 2 amino acids, was incubated with serum from peanut sensitized mice as described in U.S. patent application Ser. No. 09/455,294, filed Dec. 6, 1999; incorporated herein by reference.
PEPTIDE SYNTHESIS: Individual peptides were synthesized on a derivativized cellulose membrane using Fmoc amino acid active esters according to the manufacturer's instructions (Genosys Biotechnologies, Woodlands, Tex.). Fmoc-amino acid derivatives were dissolved in 1-methyl-2-pyrrolidone and loaded on marked spots on the membrane. Coupling reactions were followed by acetylation with a solution of 4% (v/v) acetic anhydride in N,N-dimethyl formamide (DMF). After acetylation, Fmoc groups were removed by incubation of the membrane in 20% (v/v) piperdine in DMF. […]

| Sequence | contribution to the observed IgE reactivity, single epitope |
| --- | --- |
| RCQSQLERA [mouse Ara h 2 epitope (3)] | about 15% |

The sequences below were run on serum IgE from patients with documented peanut hypersensitivity (assay: IgE immunoblot mapping of human IgE binding epitopes on synthesized peanut antigen peptides). Conditions: Ara h 3 epitope; 10 patients tested.
Description: as §1
[…] […] At least 5 ml of venous blood was drawn from each patient and allowed to clot, and the serum was collected. All studies were approved by the Human Use Advisory Committee at the University of Arkansas for Medical Sciences. Serum was diluted in a solution containing TBS and 1% bovine serum albumin and incubated with antigen for at least 12 h at 4° C. or for 2 h at room temperature. The bound primary antibody was detected with ^125I-labeled anti-IgE antibody (Sanofi Diagnostics Pasteur Inc., Paris, France).
PEPTIDE SYNTHESIS: Individual peptides were synthesized on a derivativized cellulose membrane using Fmoc amino acid active esters according to the manufacturer's instructions (Genosys Biotechnologies, Woodlands, Tex.). Fmoc-amino acid derivatives were dissolved in 1-methyl-2-pyrrolidone and loaded on marked spots on the membrane. Coupling reactions were followed by acetylation with a solution of 4% (v/v) acetic anhydride in N,N-dimethyl formamide (DMF). After acetylation, Fmoc groups were removed by incubation of the membrane in 20% (v/v) piperdine in DMF. The membrane was then stained with bromophenol blue to identify the location of the free amino groups. Cycles of coupling, blocking, and deprotection were repeated until the peptides of the desired length were synthesized. After addition of the last amino acid in the peptide, the amino acid side chains were deprotected using a solution of dichloromethane/trifluoroacetic acid/triusobutylsilante (1/10/0.05). Membranes were either probed immediately or stored at −20° C. until needed.

| Sequence | patients whose serum IgE recognized the epitope |
| --- | --- |
| VTVRGGLRTLSPDRK [Ara h 3 epitope 3] | 10 |

Same assay, conditions: human IgE binding epitopes in Ara h 3

| Sequence | FRACTION OF PATIENTS WITH IGE THAT BIND |
| --- | --- |
| IETWNPNNQEFECAG [Ara h 3 epitope 1] | 1 (25%) |
| GNIFSGFTPEFLEQA [Ara h 3 epitope 2] | 2 (38%) |
| DEDEYEYDEEDRRRG [Ara h 3 epitope 4] | 4 (38%) |
| VTVRGGLRTLSPDRK [Ara h 3 epitope 3] | 3 (100%) |

These sequences were tested on T cell preparations (assay: T cell stimulation by 5/20 native Ara h 2 peptides). Conditions: analysis of 15 patients.
Assay type: cell-based, human
Description: Each peptide was tested, using standard techniques, on 19 different T cell preparations. Positive scores, defined as a T cell stimulation index of >2, are indicated by shading.
Each of these peptides was tested for its ability to stimulate T cells. Each peptide was tested, using standard techniques, on 19 different T cell preparations. Positive scores, defined as a T cell stimulation index of >2, are indicated by shading.
As discussed herein, it may sometimes be desirable to prepare blocking agent compositions comprising antigen fragments (e.g., IgE binding site and one or more T cell epitopes).

| Sequence | single IgE site and T cell epitope in the same peptide |
| --- | --- |
| LMQKIQRDEDSYERDPYSPS [Peptide 10] | both a single IgE site and a T cell epitope recognized by at least one person |
| LTILVALALFLLAAHASARQ [Peptide 1] | both a single IgE site and a T cell epitope recognized by at least one person |
| RANLRPCEQHLMQKIQRDED [Peptide 8] | both a single IgE site and a T cell epitope recognized by at least one person |
| PCEQHLMQKIQRDEDSYERD [Peptide 9] | both a single IgE site and a T cell epitope recognized by at least one person |
| LLAAHASARQQWELQGDRRC [Peptide 3] | both a single IgE site and a T cell epitope recognized by at least one person |
| ALALFLLAAHASARQQWELQ [Peptide 2] | both a single IgE site and a T cell epitope recognized by at least one person |
